In the NIST ThermoML archive (doi:10.1021/acs.jced.8b00837):
Values joined by “and” are separate entries in the source; they are usually repeats but may differ in a detail not shown here. Equal values may be shown once.

Details: Liquid, Vibrating tube method

CCCCn1cc[n+](C)c1.O=S(=O)([O-])C(F)(F)F [1-butyl-3-methylimidazolium trifluoromethanesulfonate]
Details	mass density
333.15 K, 79293 kPa	1313.31 kg/m3
333.15 K, 89992 kPa	1318.4 kg/m3
333.15 K, 98041 kPa	1322.14 kg/m3
333.15 K, 109813 kPa	1327.45 kg/m3
333.16 K, 49998 kPa	1298.5 kg/m3
333.16 K, 59777 kPa	1303.59 kg/m3
333.16 K, 119774 kPa	1331.81 kg/m3
333.16 K, 129813 kPa	1336.09 kg/m3
333.16 K, 138881 kPa	1339.86 kg/m3
333.17 K, 39827 kPa	1293.05 kg/m3
343.15 K, 101 kPa	1262.32 kg/m3
353.13 K, 5397 kPa	1257.9 kg/m3
353.14 K, 1725 kPa	1255.5 kg/m3
353.14 K, 10408 kPa	1261.13 kg/m3
353.14 K, 60245 kPa	1290.27 kg/m3
353.14 K, 69993 kPa	1295.39 kg/m3
353.14 K, 79196 kPa	1300.06 kg/m3
353.14 K, 119409 kPa	1318.82 kg/m3
353.15 K, 101 kPa	1254.61 kg/m3 and 1254.43 kg/m3
353.15 K, 49992 kPa	1284.69 kg/m3
353.15 K, 89993 kPa	1305.36 kg/m3
353.15 K, 97743 kPa	1309.04 kg/m3
353.15 K, 109795 kPa	1314.57 kg/m3
353.15 K, 129794 kPa	1323.26 kg/m3
353.16 K, 40316 kPa	1279.23 kg/m3
353.16 K, 139089 kPa	1327.11 kg/m3
353.17 K, 29996 kPa	1273.21 kg/m3
353.19 K, 20124 kPa	1267.23 kg/m3
373.12 K, 78937 kPa	1286.82 kg/m3
373.14 K, 1630 kPa	1240.5 kg/m3
373.14 K, 4913 kPa	1242.76 kg/m3
373.14 K, 40245 kPa	1265.34 kg/m3
373.14 K, 69993 kPa	1282.13 kg/m3
373.14 K, 89993 kPa	1292.43 kg/m3
373.14 K, 99354 kPa	1297.01 kg/m3
373.14 K, 109823 kPa	1301.97 kg/m3
373.15 K, 101 kPa	1239.37 kg/m3 and 1239.44 kg/m3
373.15 K, 20238 kPa	1252.94 kg/m3
373.15 K, 29993 kPa	1259.1 kg/m3
373.15 K, 49994 kPa	1271.05 kg/m3
373.15 K, 59359 kPa	1276.34 kg/m3
373.15 K, 118844 kPa	1306.11 kg/m3
373.15 K, 129824 kPa	1311 kg/m3
373.15 K, 139225 kPa	1315.08 kg/m3
373.16 K, 10553 kPa	1246.58 kg/m3
393.12 K, 20141 kPa	1238.76 kg/m3
393.13 K, 29997 kPa	1245.39 kg/m3
393.13 K, 39789 kPa	1251.72 kg/m3
393.14 K, 10362 kPa	1231.9 kg/m3
393.14 K, 99285 kPa	1284.99 kg/m3
393.14 K, 118691 kPa	1294.13 kg/m3
393.15 K, 101 kPa	1224.37 kg/m3 and 1224.41 kg/m3
393.15 K, 49984 kPa	1258.04 kg/m3
393.15 K, 69997 kPa	1269.67 kg/m3
393.15 K, 89992 kPa	1280.34 kg/m3
393.15 K, 109795 kPa	1290.04 kg/m3
393.15 K, 129796 kPa	1299.01 kg/m3
393.15 K, 139693 kPa	1303.18 kg/m3
393.16 K, 60109 kPa	1264.05 kg/m3
393.16 K, 79320 kPa	1274.76 kg/m3
393.17 K, 1385 kPa	1225.37 kg/m3
393.18 K, 5168 kPa	1228.15 kg/m3
413.13 K, 1691 kPa	1210.63 kg/m3
413.13 K, 99873 kPa	1273.17 kg/m3
413.15 K, 101 kPa	1209.6 kg/m3 and 1209.39 kg/m3
413.15 K, 5006 kPa	1213.19 kg/m3
413.15 K, 80334 kPa	1262.84 kg/m3
413.15 K, 89994 kPa	1268.07 kg/m3
413.15 K, 109886 kPa	1278.08 kg/m3
413.17 K, 129886 kPa	1287.14 kg/m3
413.17 K, 139479 kPa	1291.12 kg/m3
413.18 K, 69993 kPa	1256.95 kg/m3
413.18 K, 119193 kPa	1282.42 kg/m3
413.2 K, 10288 kPa	1217.19 kg/m3
413.2 K, 19961 kPa	1224.32 kg/m3
413.2 K, 29916 kPa	1231.38 kg/m3
413.2 K, 39957 kPa	1238.21 kg/m3
413.2 K, 49993 kPa	1244.75 kg/m3
413.21 K, 59956 kPa	1250.96 kg/m3
